{
  "source": "patent US20050009925A1",
  "about": "“Use of norepinephrine reuptake inhibitors for the treatment of cognitive failure” (priority 2001, published 2005)",
  "system": "c-fos",
  "assay": "c-fos activation (Fos-like immunoreactivity) in rat brain after atomoxetine",
  "assay_type": "in vivo",
  "conditions": "rats, 3 mg/kg i.p., two hours after administration",
  "procedure": "The immediate-early gene, c-fos, and its protein products have been increasingly utilized as markers for neuronal activation (Dragunow and Faull, J. Neurosci. Methods, 29, 261-265 (1989); Morgan and Curran, Prog. In Brain Res., 86, 287-294 (1990); Robertson, et al., J. Pharmacol. Exp. Ther., 271, 1058-1066 (1994)). C-fos activation is measured as illustrated below for atomoxetine.\nTwo hours after administration of atomoxetine (3 mg/kg, i.p.), the rats were deeply anesthetized with sodium pentobarbital (60 mg/kg, i.p.) and transcardially perfused with 100 ml of phosphate buffered saline (PBS) followed by 100 ml of 4% paraformaldehyde in PBS. The brain was rapidly removed, postfixed for 90 min in 4% paraformaldehyde and then was transferred to 30% sucrose at […] until saturated. After quick freezing, serial 30 μm sections were cut and placed in PBS until processed for immunohistochemistry. In brief, sections were incubated in PBS containing blocking serum and 0.5% Triton-X 100 for 1 hour. Sections were then incubated with anti-Fos antibody (Santa Cruz Biotechnology, Inc.) at 4° C. overnight. Visualization of the Fos-like immunoreactivity was performed with a Vectastain ABC Elite Kit (Vector Labs, Burlingame, Calif.) using the standard protocol supplied with the kit. Nickel-intensified diaminobenzidine (DAB) was used as the chromagen to yield a gray-black precipitation product. Following visualization of the Fos immunoreactivity, the sections were mounted on gelatin-coated glass slides and allowed to dry. The sections were then dehydrated and cover slipped. Fos expressing cells were quantitated using the MCID M2 imaging system (Imaging Research, St. Catherines, Ontario).",
  "data": [
    {"smiles": "CNCC[C@@H](Oc1ccccc1C)c1ccccc1", "note": "[Atomoxetine, (R)-(−)-N-methyl-3-(2-methylphenoxy)-3-phenylpropylamine]", "values": [
      {"measurement": "Fos positive cells, Nucleus Accumbens", "setting": "nucleus accumbens", "result": "152 ± 44", "unit": "Fos positive cells/mm^2"},
      {"measurement": "Fos positive cells, Prefrontal Cortex", "setting": "prefrontal cortex", "result": "296 ± 26", "unit": "Fos positive cells/mm^2"},
      {"measurement": "Fos positive cells, Striatum", "setting": "striatum", "result": "102 ± 35", "unit": "Fos positive cells/mm^2"},
      {"measurement": "expression of c-fos (regional pattern, in words)", "setting": "summary of the table", "result": "increased the expression of c-fos only in the cortical areas"}
    ]}
  ]
}
